ChEMBL document CHEMBL1201862, “PubChem BioAssay data set” (2004)
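Tested at 5 concentrations; 48 h exposure; 96-well plates; endpoints linearly interpolated, else capped at highest concentration. Abbreviation: GI50, concentration required for 50% inhibition of growth.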 The source made the active and inactive calls. No stated cut-off is given here; in the data, active = GI50 up to about 1.1 µM and inactive = higher.

Experiments:
Assay in all cases: NCI anticancer screen, dose series, 48 h
MOLT-4 = test system: MOLT-4
MDA-MB-435 = test system: MDA-MB-435
CCRF-CEM = test system: CCRF-CEM
LOX IMVI = test system: LOX IMVI
SF-295 = test system: SF-295
MDA-MB-231 = test system: MDA-MB-231
NCI-H226 = test system: NCI-H226
Malme-3M = test system: Malme-3M
HT-29 = test system: HT-29
EKVX = test system: EKVX
UACC-62 = test system: UACC-62
OVCAR-4 = test system: OVCAR-4
A549 = test system: A549
SR = test system: SR
UO-31 = test system: UO-31
SNB-75 = test system: SNB-75
T47D = test system: T47D
HOP-62 = test system: HOP-62
Hs-578T = test system: Hs-578T
PC-3 = test system: PC-3
SF-268 = test system: SF-268
SF-539 = test system: SF-539
RXF 393 = test system: RXF 393
RPMI-8226 = test system: RPMI-8226
SN12C = test system: SN12C
HOP-92 = test system: HOP-92
HCT-15 = test system: HCT-15
SNB-19 = test system: SNB-19
NCI-H23 = test system: NCI-H23
KM12 = test system: KM12
OVCAR-8 = test system: OVCAR-8
786-0 = test system: 786-0
SW-620 = test system: SW-620
U-251 = test system: U-251
OVCAR-3 = test system: OVCAR-3
NCI/ADR-RES = test system: NCI/ADR-RES
IGROV-1 = test system: IGROV-1
NCI-H460 = test system: NCI-H460
MDA-N = test system: MDA-N
OVCAR-5 = test system: OVCAR-5
ACHN = test system: ACHN
BT-549 = test system: BT-549
SK-MEL-2 = test system: SK-MEL-2
K562 = test system: K562
SK-MEL-28 = test system: SK-MEL-28
SK-OV-3 = test system: SK-OV-3
TK-10 = test system: TK-10
A498 = test system: A498
SK-MEL-5 = test system: SK-MEL-5
MCF7 = test system: MCF7
HCC 2998 = test system: HCC 2998
HL-60 = test system: HL-60
DU-145 = test system: DU-145
M14 = test system: M14
NCI-H522 = test system: NCI-H522
CAKI-1 = test system: CAKI-1
UACC-257 = test system: UACC-257
HCT-116 = test system: HCT-116
COLO 205 = test system: COLO 205

Measured: GI50

COc1cc2c(/C=C3/C(=O)N(c4ccccc4)c4ccccc43)c(Cl)[nH]c2cc1C
active: MDA-MB-435 0.998 µM
inactive: MOLT-4 2.56 µM | CCRF-CEM 1.71 µM | LOX IMVI 2.94 µM | SF-295 2.85 µM | MDA-MB-231 3.21 µM | NCI-H226 24.3 µM | Malme-3M 4.29 µM | HT-29 3.09 µM | EKVX 3.6 µM | UACC-62 2.93 µM | OVCAR-4 2.59 µM | A549 3.41 µM | SR 3.03 µM | UO-31 2.88 µM | SNB-75 3.71 µM | T47D 2.07 µM | HOP-62 3.07 µM | Hs-578T 4.56 µM | PC-3 2.94 µM | SF-268 3.47 µM | SF-539 2.77 µM | RXF 393 4.29 µM | RPMI-8226 1.34 µM | SN12C 2.31 µM | HOP-92 4.44 µM | SNB-19 4.55 µM | NCI-H23 2.58 µM | KM12 2.14 µM | OVCAR-8 2.12 µM | 786-0 3.15 µM | SW-620 2.84 µM | U-251 3.24 µM | OVCAR-3 1.99 µM | NCI/ADR-RES 2.11 µM | IGROV-1 2.7 µM | NCI-H460 2.73 µM | MDA-N 1.45 µM | OVCAR-5 3.45 µM | ACHN 3.44 µM | BT-549 2.48 µM | SK-MEL-2 2.72 µM | K562 2.84 µM | SK-MEL-28 3.57 µM | SK-OV-3 1.89 µM | TK-10 3.19 µM | A498 6.46 µM | SK-MEL-5 2.32 µM | MCF7 3.01 µM | HCC 2998 2.37 µM | HL-60 2.31 µM | DU-145 2.89 µM | M14 3.18 µM | NCI-H522 1.44 µM | CAKI-1 3.89 µM | UACC-257 3.82 µM | HCT-116 2.95 µM | COLO 205 1.9 µM
2.83 µM: HCT-15

O=C(O)CCC(=O)C(=O)O [ALPHA-KETOGLUTARIC ACID]
inactive: MOLT-4 > 100 µM | MDA-MB-435 > 100 µM | CCRF-CEM > 100 µM | LOX IMVI > 100 µM | SF-295 > 100 µM | MDA-MB-231 > 100 µM | NCI-H226 > 100 µM | Malme-3M > 100 µM | HT-29 > 100 µM | EKVX > 100 µM | UACC-62 > 100 µM | OVCAR-4 > 100 µM | A549 > 100 µM | SR > 100 µM | UO-31 > 100 µM | SNB-75 > 100 µM | T47D > 100 µM | HOP-62 > 100 µM | Hs-578T > 100 µM | PC-3 > 100 µM | SF-268 > 100 µM | SF-539 > 100 µM | RXF 393 > 100 µM | RPMI-8226 > 100 µM | SN12C > 100 µM | HOP-92 > 100 µM | SNB-19 > 100 µM | NCI-H23 > 100 µM | KM12 > 100 µM | OVCAR-8 > 100 µM | 786-0 > 100 µM | SW-620 > 100 µM | U-251 > 100 µM | OVCAR-3 > 100 µM | NCI/ADR-RES > 100 µM | IGROV-1 > 100 µM | NCI-H460 > 100 µM | MDA-N > 100 µM | OVCAR-5 > 100 µM | ACHN > 100 µM | BT-549 > 100 µM | SK-MEL-2 > 100 µM | K562 > 100 µM | SK-MEL-28 > 100 µM | SK-OV-3 > 100 µM | TK-10 > 100 µM | A498 > 100 µM | SK-MEL-5 > 100 µM | MCF7 > 100 µM | HCC 2998 > 100 µM | HL-60 > 100 µM | DU-145 > 100 µM | M14 > 100 µM | NCI-H522 > 100 µM | CAKI-1 > 100 µM | UACC-257 > 100 µM | HCT-116 > 100 µM | COLO 205 > 100 µM
> 100 µM: HCT-15
